The results in this text go back to US8716226B2, “3,5 phenyl-substituted beta amino acid derivatives as integrin antagonists” (Saint Louis University, priority 2012, dated 2014).

Experiment [1] has as its target T1, α5β1 (Homo sapiens, UniProt P05556+P08648).
T1 construct: K562 cells (American Type Culture Collection, Manassas, Va.) which naturally express high levels of α5β1; endogenous in cells; host or cells: K562 (human erythroleukemia, ATCC)
Put plainly: K562 cell adhesion assay for α5β1 function. Type of experiment: cell-based. The conditions noted are these: K562 cells, adhesion to human plasma fibronectin. As to the method: K562 Cell Adhesion Assay for α5β1 Function.
(§1) Purified human plasma fibronectin (Calbiochem/EMD Biosciences) diluted to 5 μg/ml in TS buffer (25 mM Tris 7.4, 150 mM NaCl) was added to wells (100 μl/well) of a 96-well microtiter plate (Immulon 2HB 96-well; VWR Scientific) and incubated overnight at 4° C. The solution in each well was then replaced with 200 μl of blocking buffer (TS with 1% bovine serum albumin), and the plate incubated for 1 hr at 37° C. Compounds were diluted in test tubes to 2× the peak testing concentration in cell adhesion buffer consisting of Hanks Buffered Salts Solution (HBSS, cation-free, Sigma), 0.1% bovine serum albumin, 25 mM HEPES, and 200 μM MnCl2. […] The cells were washed with the cell adhesion buffer, counted using a hemocytometer, centrifuged and resuspended in cell adhesion buffer at 3×10^6 cells/ml. […] Remaining attached cells were detected by addition of 100 μl/well p-nitrophenylphosphate (Sigma) solution (15 mg tablet dissolved in 25 ml 50 mM NaAcetate, pH 5; 0.5% Triton-X-100), incubation for 30 min at 37° C., and then addition of 50 μl/well 1N NaOH to stop the enzyme reaction. Plates were read by colorimetric detection at 405 nm wavelength using a Tecan Safire II plate reader. Concentration-response curves were constructed by non-linear regression (best fit) analysis, and IC50 values were calculated for each compound. […]

Experiment [2] concerns the target T2, αvβ3 (Homo sapiens, UniProt P05106+P06756).
T2 construct: expressed in transfected cells; host or cells: HEK 293 (293/b3)
The experiment can be described thus: 293/b3 cell adhesion assay for αvβ3 function. The format is cell-based. The following applies: 293/b3 cells, adhesion to human vitronectin. The procedure: 293/b3 Cell Adhesion Assay for αvβ3 Function.
as §1, with “human vitronectin” for “human plasma fibronectin”, “to 0.25” for “to 5”, “NaAcetate, pH5;” for “NaAcetate, pH 5;”

T2 sequence (P06756 31-889 limits assumed): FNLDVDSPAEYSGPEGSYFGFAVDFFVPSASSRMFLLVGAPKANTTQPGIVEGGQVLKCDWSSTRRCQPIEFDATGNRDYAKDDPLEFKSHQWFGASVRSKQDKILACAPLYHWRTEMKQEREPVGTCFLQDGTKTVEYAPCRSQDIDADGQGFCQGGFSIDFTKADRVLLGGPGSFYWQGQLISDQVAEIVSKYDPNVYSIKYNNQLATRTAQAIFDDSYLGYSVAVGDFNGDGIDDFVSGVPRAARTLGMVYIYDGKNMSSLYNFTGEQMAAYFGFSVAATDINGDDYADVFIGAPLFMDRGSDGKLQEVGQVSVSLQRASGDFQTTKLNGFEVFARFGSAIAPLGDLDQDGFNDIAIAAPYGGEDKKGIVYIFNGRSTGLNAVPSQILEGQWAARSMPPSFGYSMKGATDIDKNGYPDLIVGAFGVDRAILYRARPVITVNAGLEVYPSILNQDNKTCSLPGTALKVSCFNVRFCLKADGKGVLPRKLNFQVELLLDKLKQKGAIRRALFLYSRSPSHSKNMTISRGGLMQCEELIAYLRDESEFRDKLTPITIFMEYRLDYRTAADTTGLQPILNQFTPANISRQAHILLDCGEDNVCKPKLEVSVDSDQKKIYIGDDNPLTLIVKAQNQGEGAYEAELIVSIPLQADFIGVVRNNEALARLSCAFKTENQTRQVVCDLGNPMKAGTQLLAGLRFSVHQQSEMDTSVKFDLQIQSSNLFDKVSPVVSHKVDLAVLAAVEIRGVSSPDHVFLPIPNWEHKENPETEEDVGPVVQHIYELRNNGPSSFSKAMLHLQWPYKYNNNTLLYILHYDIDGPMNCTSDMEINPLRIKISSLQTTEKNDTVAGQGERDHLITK
T2 sequence (P06756 891-1048 partner limits assumed): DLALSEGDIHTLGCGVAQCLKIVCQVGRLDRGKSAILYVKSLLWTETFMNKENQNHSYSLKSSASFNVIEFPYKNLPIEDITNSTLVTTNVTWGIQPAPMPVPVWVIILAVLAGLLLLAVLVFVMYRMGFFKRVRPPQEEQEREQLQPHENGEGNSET
T2 sequence (P05106 27-788): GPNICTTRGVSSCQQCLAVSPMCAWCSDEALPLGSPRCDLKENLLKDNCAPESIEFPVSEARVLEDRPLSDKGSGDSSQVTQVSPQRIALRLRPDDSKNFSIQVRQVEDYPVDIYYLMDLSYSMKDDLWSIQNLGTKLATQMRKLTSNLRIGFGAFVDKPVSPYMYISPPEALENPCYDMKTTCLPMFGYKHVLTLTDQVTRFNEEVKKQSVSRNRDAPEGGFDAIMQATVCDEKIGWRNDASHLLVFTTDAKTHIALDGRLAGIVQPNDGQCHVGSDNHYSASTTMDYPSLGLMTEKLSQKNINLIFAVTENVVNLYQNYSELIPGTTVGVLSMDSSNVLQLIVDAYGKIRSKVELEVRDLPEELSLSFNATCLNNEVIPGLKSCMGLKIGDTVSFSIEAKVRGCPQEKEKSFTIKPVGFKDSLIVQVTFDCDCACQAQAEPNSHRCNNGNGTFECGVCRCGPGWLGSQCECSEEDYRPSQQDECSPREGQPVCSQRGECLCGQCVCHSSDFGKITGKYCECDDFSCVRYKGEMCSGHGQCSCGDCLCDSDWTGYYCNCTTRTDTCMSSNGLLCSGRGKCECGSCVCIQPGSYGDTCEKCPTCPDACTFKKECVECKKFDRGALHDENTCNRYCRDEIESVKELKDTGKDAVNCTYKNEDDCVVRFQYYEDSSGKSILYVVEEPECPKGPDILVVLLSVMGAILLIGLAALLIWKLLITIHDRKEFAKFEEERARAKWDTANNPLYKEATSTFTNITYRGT
T1 sequence (P08648 42-894 limits assumed): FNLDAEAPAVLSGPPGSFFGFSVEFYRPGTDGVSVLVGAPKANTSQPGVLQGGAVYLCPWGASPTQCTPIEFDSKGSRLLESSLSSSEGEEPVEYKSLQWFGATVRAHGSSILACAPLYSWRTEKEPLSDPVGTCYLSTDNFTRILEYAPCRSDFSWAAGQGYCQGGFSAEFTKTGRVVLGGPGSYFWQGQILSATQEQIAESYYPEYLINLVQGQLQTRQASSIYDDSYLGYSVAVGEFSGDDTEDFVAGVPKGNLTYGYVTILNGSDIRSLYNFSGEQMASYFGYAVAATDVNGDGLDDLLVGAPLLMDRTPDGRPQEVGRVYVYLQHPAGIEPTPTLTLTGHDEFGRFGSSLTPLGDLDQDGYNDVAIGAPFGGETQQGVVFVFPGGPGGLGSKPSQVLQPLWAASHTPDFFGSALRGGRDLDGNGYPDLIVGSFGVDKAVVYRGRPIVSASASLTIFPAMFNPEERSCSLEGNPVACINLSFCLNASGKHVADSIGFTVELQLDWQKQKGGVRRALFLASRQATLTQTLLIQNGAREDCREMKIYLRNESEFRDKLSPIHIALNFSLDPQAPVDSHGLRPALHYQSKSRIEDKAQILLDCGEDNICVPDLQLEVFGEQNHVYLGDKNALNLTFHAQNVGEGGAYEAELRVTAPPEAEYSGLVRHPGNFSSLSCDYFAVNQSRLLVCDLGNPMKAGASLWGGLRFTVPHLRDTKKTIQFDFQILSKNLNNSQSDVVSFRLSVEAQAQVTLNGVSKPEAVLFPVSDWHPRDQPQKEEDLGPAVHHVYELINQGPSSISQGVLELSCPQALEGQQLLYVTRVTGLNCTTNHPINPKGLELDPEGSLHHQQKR
T1 sequence (P08648 895-1049 partner limits assumed): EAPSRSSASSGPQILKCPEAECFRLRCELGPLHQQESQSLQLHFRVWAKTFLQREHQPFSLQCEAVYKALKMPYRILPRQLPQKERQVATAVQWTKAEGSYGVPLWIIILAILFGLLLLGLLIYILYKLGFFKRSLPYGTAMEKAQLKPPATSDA
T1 sequence (P05556 21-798): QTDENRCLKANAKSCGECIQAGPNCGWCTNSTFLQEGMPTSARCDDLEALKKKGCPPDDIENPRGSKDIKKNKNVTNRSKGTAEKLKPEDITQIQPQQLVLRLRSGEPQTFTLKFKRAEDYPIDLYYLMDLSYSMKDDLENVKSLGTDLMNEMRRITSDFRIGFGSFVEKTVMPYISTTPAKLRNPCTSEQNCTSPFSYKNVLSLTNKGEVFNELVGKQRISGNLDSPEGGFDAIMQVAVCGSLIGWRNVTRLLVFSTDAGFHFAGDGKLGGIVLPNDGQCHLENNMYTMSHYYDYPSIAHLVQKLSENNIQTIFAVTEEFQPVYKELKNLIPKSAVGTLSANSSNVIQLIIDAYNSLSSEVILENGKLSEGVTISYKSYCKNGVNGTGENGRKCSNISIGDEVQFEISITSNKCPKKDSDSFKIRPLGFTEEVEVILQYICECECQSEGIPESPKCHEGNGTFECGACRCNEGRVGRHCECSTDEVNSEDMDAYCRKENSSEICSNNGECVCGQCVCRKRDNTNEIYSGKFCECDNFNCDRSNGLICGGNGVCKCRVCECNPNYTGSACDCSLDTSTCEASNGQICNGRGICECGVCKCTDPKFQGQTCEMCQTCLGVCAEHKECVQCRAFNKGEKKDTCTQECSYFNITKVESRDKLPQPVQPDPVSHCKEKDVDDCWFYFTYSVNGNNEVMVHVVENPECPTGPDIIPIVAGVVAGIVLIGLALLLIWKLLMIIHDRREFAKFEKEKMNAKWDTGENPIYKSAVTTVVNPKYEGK

Turning to `CC(C)(C)c1cc(Br)cc([C@H](CC(=O)O)NC(=O)CNC(=O)c2cc(O)cc(NC3=NCC(O)CN3)c2)c1` (stereo partly drawn) [Example 1, (3S)—N-[3-hydroxy-5-[(1,4,5,6-tetrahydro-5-hydroxy-2-pyrimidinyl)amino]benzoyl]glycyl-3-(3-bromo-5-tert-butylphenyl)-β-alanine], the IC50 is 4.2 nM in experiment [1] and 0.8 nM in experiment [2].

As a reminder, the IC50 is the concentration at which inhibition is half-maximal.
